The text below walks through data of patent publication US8802673B2, “Heterocyclic amine derivatives” (Hoffmann-La Roche Inc, priority 2011, dated 2014).

The target in one assay is mouse TAAR1 (Mus musculus (Mouse), UniProt Q923Y8). Briefly: Radioligand binding assay on mouse TAAR1. The settings on record: for Ki: mouse TAAR1 (first value of the cell), HEK-293 membranes, read-out: Ki (μM) mouse/rat. An outline of the steps:
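Membranes from HEK293 cells stably expressing mouse TAAR1, Kd of radioligand determined per batch by saturation. Compounds tested 10 pM to 10 μM in duplicate, incubated 1 h at 4 °C, then filtration over PEI-soaked GF/C filters and scintillation counting.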

The next assay concerns the target rat TAAR1 (Rattus norvegicus (Rat), UniProt Q923Y9). As to the kind of experiment: Radioligand binding assay on rat TAAR1. As to conditions: for Ki: rat TAAR1 (second value of the cell), HEK-293 membranes, read-out: Ki (μM) mouse/rat. In outline:
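Membranes from HEK293 cells stably expressing rat TAAR1 were used, with radioligand Kd determined by saturation for each batch. Compounds (10 pM to 10 μM, in duplicate) were incubated for 1 h at 4 °C. Bound radioactivity was collected by filtration onto PEI-soaked GF/C filters and counted by scintillation.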

Sequence of mouse TAAR1 (Q923Y8 whole entry): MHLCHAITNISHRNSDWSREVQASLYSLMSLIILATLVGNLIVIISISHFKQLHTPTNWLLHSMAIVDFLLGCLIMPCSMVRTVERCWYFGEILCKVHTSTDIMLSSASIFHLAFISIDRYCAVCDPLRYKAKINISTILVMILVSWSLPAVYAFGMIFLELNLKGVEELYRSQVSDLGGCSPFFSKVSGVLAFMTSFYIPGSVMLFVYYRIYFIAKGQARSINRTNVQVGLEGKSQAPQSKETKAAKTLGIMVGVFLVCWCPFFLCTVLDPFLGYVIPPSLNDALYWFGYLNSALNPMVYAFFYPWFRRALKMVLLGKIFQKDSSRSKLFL
Sequence of rat TAAR1 (Q923Y9 whole entry): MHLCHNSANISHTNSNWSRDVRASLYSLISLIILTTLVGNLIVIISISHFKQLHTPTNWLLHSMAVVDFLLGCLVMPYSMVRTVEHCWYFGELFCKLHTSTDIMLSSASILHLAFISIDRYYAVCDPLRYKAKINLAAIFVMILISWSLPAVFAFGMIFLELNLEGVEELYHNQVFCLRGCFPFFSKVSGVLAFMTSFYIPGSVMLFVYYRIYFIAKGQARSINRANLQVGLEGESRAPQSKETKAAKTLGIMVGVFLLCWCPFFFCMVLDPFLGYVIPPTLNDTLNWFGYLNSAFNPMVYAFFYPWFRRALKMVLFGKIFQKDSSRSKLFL

Regarding `CCCc1cnc(Nc2ccc([C@H]3CNCCO3)cc2)nc1` [Example 21, ((S)-4-Morpholin-2-yl-phenyl)-(5-propyl-pyrimidin-2-yl)-amine], the Ki at mouse TAAR1 is 0.002 µM; at rat TAAR1, 0.0245 µM.

As to `Fc1cnc(Nc2ccc([C@H]3CNCCO3)cc2)nc1` [Example 14, (5-Fluoro-pyrimidin-2-yl)-((S)-4-morpholin-2-yl-phenyl)-amine], the Ki on mouse TAAR1 amounted to 0.0122 µM; on rat TAAR1, 0.504 µM.

For `Clc1ccc(Nc2ccc(C3CNCCO3)cc2)cc1` (racemic) [Example 8, (RS)-(4-Chloro-phenyl)-(4-morpholin-2-yl-phenyl)-amine], the results for the Ki at mouse TAAR1 and on rat TAAR1 were 0.0005 µM and 0.0325 µM, respectively.

For the compound `CCCc1cnc(Nc2ccc(C3CNCCO3)cc2F)nc1` (racemic) [Example 101, (RS)-(2-Fluoro-4-morpholin-2-yl-phenyl)-(5-propyl-pyrimidin-2-yl)-amine], the Ki at mouse TAAR1 was determined as 0.0032 µM; at rat TAAR1, 0.0041 µM.

As for `Fc1cc(C2CNCCO2)ccc1Nc1ncc(Cl)cn1` (racemic) [Example 96, (RS)-5-Chloro-N-(2-fluoro-4-(morpholin-2-yl)phenyl)pyrimidin-2-amine], the Ki on mouse TAAR1 was 0.0062 µM; at rat TAAR1, 0.0216 µM.

With `O=[N+]([O-])c1cnc(Nc2ccc([C@H]3CNCCO3)cc2)nc1` [Example 75, ((S)-4-Morpholin-2-yl-phenyl)-(5-nitro-pyrimidin-2-yl)-amine], the Ki at mouse TAAR1 was found to be 0.0141 µM; on rat TAAR1 it was 0.228 µM.

With `Clc1cnc(Nc2ccc([C@H]3CNCCO3)cc2)nc1` [Example 104, (S)-5-Chloro-N-(4-(morpholin-2-yl)phenyl)pyrimidin-2-amine], the Ki amounted to 0.0041 µM at mouse TAAR1 and 0.105 µM on rat TAAR1.

Consider `c1ccc(Cn2ccc(Nc3ccc([C@@H]4CNCCO4)cc3)n2)cc1` [Example 162, (1-Benzyl-1H-pyrazol-3-yl)-((R)-4-morpholin-2-yl-phenyl)-amine], for which the results for the Ki at mouse TAAR1 and on rat TAAR1 were 0.002 µM and 0.127 µM, respectively.

For `Clc1ccc2nc(Nc3ccc([C@H]4CNCCO4)cc3)sc2c1` [Example 26, (6-Chloro-benzothiazol-2-yl)-((S)-4-morpholin-2-yl-phenyl)-amine], the Ki is 0.002 µM on mouse TAAR1 and 0.0083 µM on rat TAAR1.

As for `c1ccc2nc(Nc3ccc([C@@H]4CNCCO4)cc3)ncc2c1` [Example 177, ((R)-4-Morpholin-2-yl-phenyl)-quinazolin-2-yl-amine], the results for the Ki on mouse TAAR1 and on rat TAAR1 were 0.0028 µM and 0.0299 µM, respectively.

Turning to `Clc1cnc(Nc2ccc([C@@H]3CNCCO3)c(Cl)c2)nc1` [Example 202, ((R)-3-Chloro-4-morpholin-2-yl-phenyl)-(5-chloro-pyrimidin-2-yl)-amine], the Ki turned out to be 0.0032 µM on mouse TAAR1 and 0.0065 µM on rat TAAR1.

In the case of `Clc1nc2ccccc2cc1CNc1ccc([C@H]2CNCCO2)cc1` [Example 51, (S)—N-((2-Chloroquinolin-3-yl)methyl)-4-(morpholin-2-yl)aniline], the Ki stood at 0.0363 µM on mouse TAAR1 and 0.28 µM at rat TAAR1.

For the compound `Clc1ccc(Nc2ccc([C@H]3CNCCO3)cc2)nc1` [Example 38, (5-Chloro-pyridin-2-yl)-((S)-4-morpholin-2-yl-phenyl)-amine], the Ki was 0.0011 µM at mouse TAAR1 and 0.0544 µM on rat TAAR1.

For the compound `CCOc1cnc(Nc2ccc([C@@H]3CCCNC3)cc2)nc1` [Example 114, (5-Ethoxy-pyrimidin-2-yl)-((S)-4-piperidin-3-yl-phenyl)-amine], the results for the Ki on mouse TAAR1 and on rat TAAR1 were 0.0212 µM and 0.996 µM, respectively.

Take `Cc1cc(Br)cnc1Nc1ccc([C@H]2CNCCO2)cc1` [Example 56, (S)-5-Bromo-3-methyl-N-(4-(morpholin-2-yl)phenyl)pyridin-2-amine]: the Ki is 0.0372 µM on mouse TAAR1 and 0.211 µM on rat TAAR1.

In the case of `FC(F)(F)c1ccc(CNc2ccc([C@H]3CNCCO3)cc2)cn1` [Example 33, (S)-4-(Morpholin-2-yl)-N-((6-(trifluoromethyl)pyridin-3-yl)methyl)aniline], the Ki on mouse TAAR1 was 0.047 µM; on rat TAAR1, 0.544 µM.

For the compound `Clc1ccc2nc(Nc3ccc([C@H]4CNCCO4)cc3)ccc2c1` [Example 47, (S)-6-Chloro-N-(4-(morpholin-2-yl)phenyl)quinolin-2-amine], the Ki at mouse TAAR1 was found to be 0.0012 µM; at rat TAAR1, 0.0067 µM.

With `Cc1cc([C@@H]2CNCCO2)ccc1Nc1ncc(C(F)(F)F)cn1` [Example 166, ((R)-2-Methyl-4-morpholin-2-yl-phenyl)-(5-trifluoromethyl-pyrimidin-2-yl)-amine], the Ki was 0.0301 µM on mouse TAAR1 and 0.159 µM at rat TAAR1.

As to `Fc1cc(Nc2ccc([C@H]3CNCCO3)cc2)cnc1Cl` [Example 40, (S)-6-Chloro-5-fluoro-N-(4-(morpholin-2-yl)phenyl)pyridin-3-amine], the values for the Ki on mouse TAAR1 and at rat TAAR1 were 0.0026 µM and 0.188 µM, respectively.

Take `CN(c1ccc(Cl)cc1)c1ccc([C@H]2CNCCO2)cc1` [Example 60, (4-Chloro-phenyl)-methyl-((S)-4-morpholin-2-yl-phenyl)-amine]: the Ki at mouse TAAR1 is 0.0222 µM; at rat TAAR1, 0.758 µM.

Turning to `Cc1cc(C)nc(Nc2ccc([C@@H]3CNCCO3)cc2)n1` [Example 182, (4,6-Dimethyl-pyrimidin-2-yl)-((R)-4-morpholin-2-yl-phenyl)-amine], the Ki at mouse TAAR1 was 0.0144 µM; at rat TAAR1, 0.447 µM.

In the case of `CCN(C[C@H]1COC(N)=N1)c1ccccc1` [^3[H]-(S)-4-[(ethyl-phenylamino)-methyl]-4,5-dihydro-oxazol-2-ylamine, reference compound], the Kd at mouse TAAR1 (mouse TAAR1 membranes, saturation curve, usual value, read-out: dissociation constant (Kd) of the radioligand) is approximately 0.7 nM; on rat TAAR1 (rat TAAR1 membranes, saturation curve, usual value, read-out: dissociation constant (Kd) of the radioligand), approximately 2.3 nM.

Turning to `c1ccc(-c2cc(Nc3ccc([C@H]4CNCCO4)cc3)n[nH]2)cc1` [Example 113, (S)—N-(4-(Morpholin-2-yl)phenyl)-5-phenyl-1H-pyrazol-3-amine], the Ki came out at 0.0011 µM on mouse TAAR1 and 0.0877 µM on rat TAAR1.

`CCOc1cc(Nc2ccc([C@H]3CNCCO3)cc2)cnc1Cl` [Example 71, (S)-6-Chloro-5-ethoxy-N-(4-(morpholin-2-yl)phenyl)pyridin-3-amine]: the Ki amounted to 0.0118 µM on mouse TAAR1 and 0.168 µM on rat TAAR1.

Turning to `Clc1ccc2ncnc(Nc3ccc([C@H]4CNCCO4)cc3)c2c1` [Example 50, (S)-6-Chloro-N-(4-(morpholin-2-yl)phenyl)quinazolin-4-amine], the results for the Ki on mouse TAAR1 and on rat TAAR1 were 0.005 µM and 0.0608 µM, respectively.

Take `Clc1ncc(Cl)c(Nc2ccc([C@H]3CNCCO3)cc2)n1` [Example 186, (S)-2,5-Dichloro-N-(4-(morpholin-2-yl)phenyl)pyrimidin-4-amine]: the results for the Ki on mouse TAAR1 and on rat TAAR1 were 0.138 µM and 1.1 µM, respectively.

Regarding `FC(F)Oc1cnc(Oc2cnc(Nc3ccc([C@@H]4CNCCO4)cc3Cl)nc2)nc1` [Example 175, (R)—N-(2-Chloro-4-(morpholin-2-yl)phenyl)-5-(5-(difluoromethoxy)pyrimidin-2-yloxy)pyrimidin-2-amine], the Ki on mouse TAAR1 is 0.006 µM; on rat TAAR1 it was 0.0066 µM.

On to `Clc1cnc(Nc2ccc([C@H]3CNCCO3)cc2)c(Cl)c1` [Example 58, (S)-3,5-Dichloro-N-(4-(morpholin-2-yl)phenyl)pyridin-2-amine], for which the Ki on mouse TAAR1 came out at 0.0704 µM; at rat TAAR1, 0.584 µM.

With `c1ccc(-c2nnc(Nc3ccc([C@H]4CNCCO4)cc3)o2)cc1` [Example 115, (S)—N-(4-(Morpholin-2-yl)phenyl)-5-phenyl-1,3,4-oxadiazol-2-amine], the Ki stood at 0.0079 µM at mouse TAAR1 and 0.235 µM at rat TAAR1.

Regarding `CCc1cnc(Nc2ccc([C@H]3CNCCO3)cc2)nc1C` [Example 72, (5-Ethyl-4-methyl-pyrimidin-2-yl)-((S)-4-morpholin-2-yl-phenyl)-amine], the Ki was determined as 0.0171 µM on mouse TAAR1 and 0.22 µM at rat TAAR1.

Consider `Fc1cc(Nc2ncc(C(F)(F)F)cn2)ccc1[C@@H]1CNCCO1` [Example 196, (R)—N-(3-Fluoro-4-(morpholin-2-yl)phenyl)-5-(trifluoromethyl)pyrimidin-2-amine], for which the results for the Ki at mouse TAAR1 and on rat TAAR1 were 0.0049 µM and 0.004 µM, respectively.

For the compound `FC(F)(F)c1nccc(Nc2ccc([C@@H]3CNCCO3)cc2)n1` [Example 200, (R)—N-(4-(morpholin-2-yl)phenyl)-2-(trifluoromethyl)pyrimidin-4-amine], the Ki on mouse TAAR1 stood at 0.0089 µM; on rat TAAR1, 0.0588 µM.

Regarding `FC(F)(F)c1ccnc(Nc2ccc([C@@H]3CNCCO3)cc2)n1` [Example 173, (R)—N-(4-(Morpholin-2-yl)phenyl)-4-(trifluoromethyl)pyrimidin-2-amine], the values for the Ki at mouse TAAR1 and at rat TAAR1 were 0.0044 µM and 0.0625 µM, respectively.

Turning to `FC(F)(F)c1ccnc(Nc2ccc([C@H]3CNCCO3)cc2)c1` [Example 42, (S)—N-(4-(Morpholin-2-yl)phenyl)-4-(trifluoromethyl)pyridin-2-amine], the Ki at mouse TAAR1 came out at 0.0023 µM; at rat TAAR1, 0.0518 µM.

As for `Cc1cc(C2CNCCO2)ccc1Nc1ncc(Br)cn1` (racemic) [Example 89, (RS)-5-Bromo-N-(2-methyl-4-(morpholin-2-yl)phenyl)pyrimidin-2-amine], the Ki at mouse TAAR1 came to 0.0139 µM; at rat TAAR1, 0.177 µM.

Take `FC(F)(F)c1cnc(Nc2ccc([C@@H]3CNCCO3)cc2Cl)nc1` [Example 168, ((R)-2-Chloro-4-morpholin-2-yl-phenyl)-(5-trifluoromethyl-pyrimidin-2-yl)-amine]: the results for the Ki on mouse TAAR1 and on rat TAAR1 were 0.0077 µM and 0.0065 µM, respectively.

For the compound `FC(F)(F)COc1ccnc(Nc2ccc([C@@H]3CNCCO3)c(Cl)c2)n1` [Example 211, ((R)-3-Chloro-4-morpholin-2-yl-phenyl)-[4-(2,2,2-trifluoro-ethoxy)-pyrimidin-2-yl]-amine], the results for the Ki on mouse TAAR1 and on rat TAAR1 were 0.0042 µM and 0.0011 µM, respectively.

The term Kd denotes the constant that tells how readily two partners part at equilibrium.
